Measurements published in patent US11116738B2, “Methods for treating neutropenia using retinoid agonists” (CHILDREN'S HOSPITAL LOS ANGELES, priority 2012, dated 2021).

Assays:
[1] = system: S. aureus; assay: Bactericidal activity in vitro of neutrophils purified from PB of treated neutropenic mice
Description: Each 5×10^5 to 2×10^6 of freshly purified PBN as well as ex vivo-induced GIN and AIN were suspended with 500 μl of culture medium (DMEM with 10% of FBS) in 1.5-ml tubes. Cells were incubated with log-phase Escherichia coli (E. coli) DH5α (provided by collaborator) or Staphylococcus aureus (S. aureus; ATCC) at an MOI of 5 or 10 at 37° C. for 15, 30, and/or 60 min, whereas bacteria in the absence of cells were used to determine growth. The samples with or without cells were centrifuged at 1000-rpm at each time point. Extracellular bacteria in the presence of cells were collected from the supernatants, and enumerated by plating different dilutions (20 μL each) on blood agar. Cell pellets collected from the samples infected with bacteria were further incubated with 100 μg/ml of gentamicin (Sigma) for 1 hr at 37° C. to kill external bacteria. Cells were then washed twice and lysed with 100 μL of 0.5% Triton X-100. Different-dilution aliquots (20 μL for each) of viable intracellular bacteria recovered from the cell lysates were plated on blood agar. The numbers of extracellular and viable intracellular bacteria at each time point were determined by CFU counts as described,^5,30 while the number of phagocytosed and killed bacteria was based on the counts of extracellular and viable intracellular bacteria to the number of relevant bacteria control in the neutrophil-free condition.^5,30

[2] = system: CD34+ cells; assay: Morphologic analysis of granulocytic differentiation of CD34+ cells; format: cell-based, human; settings: for neutrophil morphologic differentiation, promyelocyte to segmented stage (in words): G-CSF 25 ng/ml or Am80 2.5 nM; for efficacy as inducer of granulocytic differentiation (in words): CD34+ cells, FIG. 6, day 12-13
Description: (§1) Normal human primitive umbilical cord blood CD34+ cells were from AllCells (Emeryville, Calif.). CD34+ cells were expanded^29 about 50× by using StemSpan serum-free medium (StemCell Technologies, Vancouver, Canada) for 6 days according to the manufacturer's protocol. To induce granulopoiesis, CD34+ cells were cultured with myeloid medium supplemented with 25 ng/ml of G-CSF^17,29 for 6-12 days. Lymphoid and erythroid cells were blocked during granulopoiesis by addition of hydrocortisone and exclusion of erythropoietin.^17, 29 All-trans retinoic acid (RA) was from Sigma (St. Louis, Mo.), while the retinoid agonists Am80, CH55, and IT-YA-01115 (ITYA) were from Research Foundation ITSUU Laboratory (Tokyo, Japan). Each retinoid compound was dissolved in ethanol. The experimentally determined conditions, using 25 ng/ml of G-CSF^17,29 or 2.5 nM of Am80 for granulocytic induction of 6 days (FIG. 1), were applied in the studies.
Cell suspensions were cytocentrifuged onto Micro slides, followed by methanol fixation and stained with Wright-Giemsa (Sigma) as described.^17,29 The morphologic indicators of differentiation were evaluated under a Zeiss Axioplan microscope, and images were color balanced with Adobe Photoshop as described.^17
Cells suspended in PBS containing 0.5% BSA and 2 mM EDTA were mixed with anti-CD15 antibodies conjugated to magnetic microbeads (Miltenyi Biotec, Bergish Gladbach, Germany) for incubation of 30 min at 4° C. CD15+ subpopulation was then purified by using magnetic sorter (Miltenyi Biotec, Bergish Gladbach, Germany) according to the manufacturer's protocol.

[3] = system: CD34+ cells; format: cell-based; settings: for cell death rate (in words) / cell proliferation (in words): CD34+ cells, FIG. 6B, 6D
Description: as §1, with “[…].” for “Lymphoid and erythroid cells were blocked during granulopoiesis by addition of hydrocortisone and exclusion of erythropoietin.^17, 29 All-trans retinoic acid (RA) was from Sigma (St. Louis, Mo.), while the retinoid agonists Am80, CH55, and IT-YA-01115 (ITYA) were from Research Foundation ITSUU Laboratory (Tokyo, Japan).”
Cell proliferation was determined by cell count with a standard hemocytometer, as described.^17,29 Briefly, equal numbers of cells plated in triplicate were counted for up to 13 days after 72 hr of plating. By using trypan blue exclusion, cell proliferation and its associated cell death in the cultures were measured simultaneously.

[4] = system: neutrophils induced from CD34+ cells; assay: Degranulation analysis by Western blotting with or without E. coli stimuli; format: cell-based, human; settings: FIGS. 1, 2
Description: Western blotting (WB) was performed as described.^15 Antibodies for lactoferrin (Abcam, Cambridge, UK), MMP-9 (Merck Chemicals, Darmstadt, Germany), and LL-37 (Biolegend, San Diego, Calif.) were used in analyses.
Cells were incubated with or without E. coli DH5α (MOI of 5; cell to bacteria ratio 1:5) in serum-free DMEM medium for 30 min at 37° C. Both cell pellets and supernatants were collected by 3,000-rpm centrifugation for 7 min. The cell pellets were suspended with 100 μg/ml of gentamicin and incubated at 37° C. for 1 hr, followed by collection of cells and extraction of cellular proteins. The supernatant was filtered with a 0.22-μm filter (Pall corporation, Ann Arbor, Mich.) and proteins in the supernatant were then concentrated by using an Amicon Ultra-4 centrifugal filter unit designed to collect proteins with a mass greater than 3,000 daltons (Millipore, Billerica, Mass.). The quantity of the proteins was measured by using Bio-Rad DC Protein Assay (Hercules, Calif.).^29 The change in granule protein levels with or without E. coli stimuli was analyzed in parallel by WB.

[5] = system: neutropenic mice; assay: Neutrophil recovery in CPA-induced neutropenic mice; format: in vivo, C57BL6/J mice
[6] = system: acute promyelocytic leukemia (APL); settings: APL patients; cited from earlier work

Molecule | efficacy of mobilized neutrophils against S aureus infection (in words) [1] | neutrophil morphologic differentiation, promyelocyte to segmented stage (in words) ([2]; 6 days) | granulocytic differentiation (in words) ([2]; Am80 2.5 nM, 6 days) | efficacy as inducer of granulocytic differentiation (in words) [2] | toxicity (in words) ([3]; Am80 2.5 nM, 6 days) | cell death (in words) ([3]; Am80 10 nM) | cell death rate (in words) [3] | cell proliferation (in words) [3] | granulocytic morphologic differentiation and granule production/secretion compared with G-CSF (in words) [4] | neutrophil recovery (in words) ([5]; day 3 post-CPA, Am80 5 mg/kg vs G-CSF of 250 μg, lower level of Ficoll-paque) | efficiency relative to RA or other retinoids as differentiation therapy [6] | toxicity relative to RA or other retinoids (in words) [6] | monocytes induced ([2]; G-CSF 25 ng/ml, 6 days) | granulocytic differentiation and monocytic induction by treatment time (in words) ([2]; G-CSF for 6, 9 and 12 days) | neutrophil recovery (in words) ([5]; day 5, injection for 2 consecutive days)
CC1(C)CCC(C)(C)c2cc(NC(=O)c3ccc(C(=O)O)cc3)ccc21 [Am80, tamibarotene] | significantly more efficacious against S aureus infection than those by G-CSF | sufficiently induced | profoundly induced granulocytic differentiation with negligible monocytic induction | promote granulocytic differentiation with similar effectiveness | less toxicity than 5 nM of Am80 | induced more cell death | lower than seen with either CH55 or RA | inhibited cell proliferation | more effective than G-CSF | competitive neutrophil recovery | approximately 10 fold | lower toxicity |  |  | 
CC(C)(C)c1cc(C(=O)/C=C/c2ccc(C(=O)O)cc2)cc(C(C)(C)C)c1 [CH55] |  |  |  | promote granulocytic differentiation with similar effectiveness |  |  |  | inhibited cell proliferation |  |  |  |  |  |  | 
CC1=C(/C=C/C(C)=C/C=C/C(C)=C/C(=O)O)C(C)(C)CCC1 [RA, all-trans retinoic acid] |  |  |  | promote granulocytic differentiation with similar effectiveness |  |  |  | inhibited cell proliferation |  |  |  |  |  |  | 
G-CSF: recombinant granulocyte colony-stimulating factor (protein, UniProt P09919 31-207, looked up) Granulocyte …: TPLGPASSLPQSFLLKCLEQVRKIQGDGAALQEKLVSECATYKLCHPEELVLLGHSLGIPWAPLSSCPSQALQLAGCLSQLHSGLFLYQGLLQALEGISPELGPTLDTLQLDVADFATTIWQQMEELGMAPALQPTQGAMPAFASAFQRRAGGVLVASHLQSFLEVSYRVLRHLAQP |  | induced more myeloblasts as well as promyelocytes and myelocytes than banded and segmented neutrophils |  | significantly less efficacious |  |  | lower rate of cell death compared to RA | greater cell proliferation |  |  |  |  | about 10% | more effective granulocytic differentiation with the lowest rate of monocytic induction on day 6 | remarkably accelerated neutrophil recovery
